Patent publication US9453226B2, “Protection of cells from Alu-RNA-induced degeneration and inhibitors for protecting cells” (UNIVERSITY OF KENTUCKY RESEARCH FOUNDATION, priority 2011, dated 2016)
Read-outs that look alike come from different tables or passages of the source.

How the values were obtained:
RPE = experiment: Alu RNA-induced RPE degeneration in wild-type mice, inhibitors given intravitreously; type: in vivo; settings: WT mice; subretinal Alu RNA; inhibitor intravitreous
Experimental: Subretinal injection and imaging. Subretinal injections (1 μL) were performed using a Pico-Injector (PLI-100, Harvard Apparatus). Plasmids were transfected in vivo using 10% Neuroporter (Genlantis). Fundus imaging was performed on a TRC-50 IX camera (Topcon) linked to a digital imaging system (Sony). RPE flat mounts were immunolabeled using antibodies against zonula occludens-1 (Invitrogen).
Retinal photographs of dilated mouse eyes were taken with a TRC-50 IX camera (Topcon) linked to a digital imaging system (Sony).
Human eyes fixed in 2-4% paraformaldehyde were prepared as eyecups, cryoprotected in 30% sucrose, embedded in optimal cutting temperature compound (Tissue-Tek OCT; Sakura Finetek), and cryosectioned into 10 μm sections. Depigmentation was achieved using 0.25% potassium permanganate and 0.1% oxalic acid. Immunohistochemical staining was performed with the rabbit antibody against NLRP3 (1:100, Sigma Aldrich) or rabbit antibody against Caspase-1 (prediluted, AbCam). Isotype IgG was substituted for the primary antibody to assess the specificity of the staining. Bound antibody was detected with biotin-conjugated secondary antibodies, followed by incubation with ABC reagent and visualized by Vector Blue (Vector Laboratories). Levamisole (Vector Laboratories) was used to block endogenous alkaline phosphatase activity. Slides were washed in PBS, counterstained with neutral red (Fisher Scientific), rinsed with deionized water, air dried, and then mounted in Vectamount (Vector Laboratories). Fluorescent labeling of human tissue was performed with the rabbit antibody against PYCARD (1:50, Clone N-15, Santa Cruz Biotechnology) Immunolabeling was visualized by fluorescently conjugated anti-rabbit secondary antibody (Invitrogen). Tissue autofluorescence was quenched by incubating the sections in 0.3% Sudan black (Fisher Scientific). Sections were mounted in Vectashield with DAPI (Vector Laboratories). Mouse RPE/choroid flat mounts were fixed with 4% paraformaldehyde or 100% methanol, stained with rabbit antibodies against human zonula occludens-1 (1:100, Invitrogen) and visualized with Alexa594 (Invitrogen). All images were obtained using the Leica SP-5 or Zeiss Axio Observer Z1 microscopes.
Subretinal injections (1 μL) in mice were performed using a Pico-Injector (PLI-100, Harvard Apparatus). In vivo transfection of plasmids coding for two different Alu sequences (pAlu) or empty control vector (pNull) (Bennett et al., 2008; Kaneko et al., 2011; Shaikh et al., 1997) was achieved using 10% Neuroporter (Genlantis). AAV1-BEST1-Cre (Alexander and Hauswirth, 2008) or AAV1-BEST1-GFP were injected at 1.0×10^11 pfu/mL and in vitro transcribed Alu RNA was injected at 0.3 mg/mL.
(§1) siRNAs formulated in siRNA buffer (20 mM KCL, 0.2 mM MgCl2 in HEPES buffer at pH 7.5; Dharmacon) or phosphate buffered saline (PBS; Sigma-Aldrich); the TLR4 antagonist Ultra Pure Rhodobacter sphaeroides LPS (LPS-RS, InvivoGen), a peptide inhibitor of MyD88 homodimerization IMG-2005 (IMGENEX), control inhibitor (IMGENEX), recombinant IL-18 (Medical & Biological Laboratories), neutralizing rat antibodies against mouse IL-1β (IMGENEX), neutralizing rat antibodies against mouse IL-18 (Medical & Biological Laboratories), isotype control IgGs (R&D Systems or eBioscience as appropriate), Caspase-1 inhibitor Z-WEHD-FMK (R&D Systems), Caspase control inhibitor Z-FA-FMK (R&D Systems), DPI (Enzo Life Sciences), Mito-TEMPO (Enzo Life Sciences), MitoQ and dTPP (both adsorbed to cyclodextrin and provided by M.P. Murphy, MRC Mitochondrial Biology Unit), and gp91ds-tat and scrambled gp91 ds-tat (both Anaspec), were dissolved in phosphate buffered saline (PBS; Sigma-Aldrich) or dimethyl sulfoxide (DMSO; Sigma-Aldrich), and injected into the vitreous humor in a total volume of 1 μL with a 33-gauge Exmire microsyringe (Ito Corporation). […] As a control, Luc siRNA-chol (17+2 nt) was used with identical dosages.

human RPE cells = human RPE cells transfected with pAlu
Experimental: All cell cultures were maintained at 37° C. and 5% CO2. Primary mouse RPE cells were isolated as previously described (Yang et al., 2009) and grown in Dulbecco Modified Eagle Medium (DMEM) supplemented with 20% FBS and standard antibiotics concentrations. Primary human RPE cells were isolated as previously described (Yang et al., 2008) and maintained in DMEM supplemented with 10% FBS and antibiotics. HeLa cells were maintained in DMEM supplemented with 20% FBS and standard antibiotics concentrations. THP-1 cells were cultured in RPMI 1640 medium supplemented with 10% FBS and antibiotics.
MTS assays were performed using the CellTiter 96 AQueous One Solution Cell Proliferation Assay (Promega) according to the manufacturer's instructions. For examining the cytoprotective effect of glycine in Alu RNA induced cell death, human RPE cells were transfected with pNull/pAlu. At 6 h post-transfection the cells were incubated with complete media containing glycine (5 mM) or vehicle, and cell viability was assessed after 24 h. Similarly, human RPE cells primed with LPS (5 μg/ml for 6 h) were treated with ATP (25 μM) in the presence of glycine containing media (5 mM). 30 min post ATP cell viability was assessed as described above.
MTS assays were performed using the CellTiter 96 AQueous One Solution Cell Proliferation Assay (Promega) according to the manufacturer's instructions.

IL-18 = IL-18 maturation in RPE cell lysates of wild-type mice (Western blot); type: in vivo; settings: WT mice, peptide intravitreous
Experimental: as §1, with “dosages. […]” for “dosages.”

Substance	Alu RNA-induced RPE degeneration (RPE)	pAlu-induced human RPE cell death / loss of cell viability (human RPE cells; listed as MyD88-inhibitory peptide)	pAlu-induced human RPE cell death / loss of cell viability (human RPE cells; listed as MyD88i)	pAlu-induced IL-18 maturation (IL-18)	pAlu-induced IL-18 maturation (IL-18; listed as Caspase-1 peptide inhibitor)
DRQIKIWFQNRRMKWKKRDVLPGT [MyD88 inhibitory peptide]	prevented RPE degeneration	inhibited cell death	rescued		
Z-WEHD-FMK				blocked IL-18 maturation	impaired
